From US10047104B2, “Bicyclic heterocyclyl derivatives as IRAK4 inhibitors” (Aurigene Discovery Technologies Limited, priority 2014, dated 2018)
Counter-ions that a name gives are not always drawn.

Biological target: T1, recombinant IRAK-4 kinase (Homo sapiens, UniProt Q9NWZ3)
T1 construct: purchased Millipore, USA
T1 sequence (Q9NWZ3 1-460): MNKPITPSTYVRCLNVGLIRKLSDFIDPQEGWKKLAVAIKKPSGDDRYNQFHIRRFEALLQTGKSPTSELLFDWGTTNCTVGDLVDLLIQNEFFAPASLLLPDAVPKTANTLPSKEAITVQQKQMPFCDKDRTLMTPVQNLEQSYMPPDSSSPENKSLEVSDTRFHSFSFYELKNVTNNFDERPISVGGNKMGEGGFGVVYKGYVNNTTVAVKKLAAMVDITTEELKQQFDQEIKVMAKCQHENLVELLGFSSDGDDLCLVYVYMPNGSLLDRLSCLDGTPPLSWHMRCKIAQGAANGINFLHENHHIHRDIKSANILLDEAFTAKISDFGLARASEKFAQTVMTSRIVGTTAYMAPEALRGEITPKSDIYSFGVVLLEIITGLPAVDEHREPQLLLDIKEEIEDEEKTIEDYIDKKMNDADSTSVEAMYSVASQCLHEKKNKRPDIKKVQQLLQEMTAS
Assay: IRAK-4 Biochemical Assay (TR-FRET)
Details: 5 ng IRAK-4 kinase, 100 nM Biotin Histone H3, 20 μM ATP, 30 minutes pre-incubation, read-out: IC50 values for IRAK4 activity
Protocol: Compounds were tested for their potential to inhibit IRAK-4 enzyme in a TR-FRET assay using recombinant IRAK-4 kinase from Millipore, USA. The assay buffer was 50 mM Tris-HCl pH 7.5, 20 mM MgCl2, 1 mM EGTA, 2 mM DTT, 3 mM MnCl2 and 0.01% Tween20. 5 ng of IRAK-4 kinase was used for the assay. After pre-incubation of enzyme with test compound for 30 minutes at room temperature, a substrate mix containing 100 nM Biotin Histone H3 (Millipore, USA) and 20 μM ATP (Sigma, USA) was added and the reaction was incubated for 30 minutes. Post incubation, the reaction was stopped by the addition of stop mix containing 40 mM EDTA, 1 nM of Europium-Anti-Phospho-Histone H3 (Ser10) antibody (Perkin Elmer, USA) and 20 nM Sure Light Allophycocyanin-Streptavidin (Perkin Elmer, USA).

Structure (SMILES): O=C(Nc1cc2oc(N3CCOCC3)nc2nc1N1CCCCC1)c1cccc(Cl)n1 [Example 8, 6-chloro-N-(2-morpholino-5-(piperidin-1-yl)oxazolo[4,5-b]pyridin-6-yl)picolinamide]
- IC50: < 50 nM

Structure (SMILES): Nc1ccc(-c2cccc(C(=O)Nc3cnc4nc(N5CCOCC5)sc4c3)n2)cn1 [Example 16, 6′-amino-N-(2-morpholinothiazolo[4,5-b]pyridin-6-yl)-[2,3′-bipyridine]-6-carboxamide]
- IC50: < 50 nM

Structure (SMILES): Cc1cc(-c2nc(C(=O)Nc3cc4oc(N5CCCCC5)nc4nc3N3CCCCC3)co2)ccn1 [Example 5, N-(2,5-di(piperidin-1-yl)oxazolo[4,5-b]pyridin-6-yl)-2-(2-methylpyridin-4-yl)oxazole-4-carboxamide]
- IC50: < 50 nM

Structure (SMILES): COc1ccc(-c2nc(C(=O)Nc3cc4sc(N5CCOCC5)nc4nc3N3CC[C@H](O)C3)co2)cn1 [Example 77, (S)—N-(5-(3-hydroxypyrrolidin-1-yl)-2-morpholinothiazolo[4,5-b]pyridin-6-yl)-2-(6-methoxypyridin-3-yl)oxazole-4-carboxamide]
- IC50: < 50 nM

Structure (SMILES): N[C@H]1CCN(c2nc(C(=O)Nc3cc4oc(N5CCOCC5)nc4nc3N3CCCCC3)co2)C1 [Example 42, (S)-2-(3-aminopyrrolidin-1-yl)-N-(2-morpholino-5-(piperidin-1-yl)oxazolo[4,5-b]pyridin-6-yl)oxazole-4-carboxamide]
- IC50: 50 to 100 nM

Structure (SMILES): C[C@H](O)Cn1cc(-c2cccc(C(=O)Nc3cc4sc(N5CCOCC5)nc4nc3C3CC3)n2)cn1 [Example 74, (S)—N-(5-cyclopropyl-2-morpholinothiazolo[4,5-b]pyridin-6-yl)-6-(1-(2-hydroxypropyl)-1H-pyrazol-4-yl)picolinamide]
- IC50: < 50 nM

Structure (SMILES): Nc1cc(-c2nc(C(=O)Nc3cc4sc(N5CCOCC5)nc4nc3N3CCCCC3)co2)ccn1 [Example 92, 2-(2-aminopyridin-4-yl)-N-(2-morpholino-5-(piperidin-1-yl)thiazolo[4,5-b]pyridin-6-yl)oxazole-4-carboxamide hydrochloride]
- IC50: < 50 nM

Structure (SMILES): Cc1cc(-c2ccc(C(=O)Nc3cc4oc(N5CCOCC5)nc4nc3N3CCC[C@@H](O)C3)o2)ccn1 [Example 115, (R)—N-(5-(3-hydroxypiperidin-1-yl)-2-morpholinooxazolo[4,5-b]pyridin-6-yl)-5-(2-methylpyridin-4-yl)furan-2-carboxamide]
- IC50: < 50 nM

Structure (SMILES): O=C(Nc1cc2sc(N3CCOCC3)nc2nc1C1CC1)c1coc(N2CC[C@H](O)C2)n1 [Example 73, (S)—N-(5-cyclopropyl-2-morpholinothiazolo[4,5-b]pyridin-6-yl)-2-(3-hydroxypyrrolidin-1-yl)oxazole-4-carboxamide]
- IC50: < 50 nM

Structure (SMILES): O=C(Nc1cc2sc(N3CCOCC3)nc2nc1N1CCCCC1)c1coc(N2CC[C@H](O)C2)n1 [Example 70, (S)-2-(3-hydroxypyrrolidin-1-yl)-N-(2-morpholino-5-(piperidin-1-yl)thiazolo[4,5-b]pyridin-6-yl)oxazole-4-carboxamide]
- IC50: < 50 nM

Structure (SMILES): Cc1cnccc1-c1nc(C(=O)Nc2cc3oc(N4CCOCC4)nc3nc2N2CCCCC2)co1 [Example 33, 2-(3-methylpyridin-4-yl)-N-(2-morpholino-5-(piperidin-1-yl)oxazolo[4,5-b]pyridin-6-yl)oxazole-4-carboxamide]
- IC50: < 50 nM

Structure (SMILES): Cc1ncccc1-c1nc(C(=O)Nc2cc3sc(N4CCCCC4)nc3nc2N2CCCCC2)co1 [Example 52, N-(2,5-di(piperidin-1-yl)thiazolo[4,5-b]pyridin-6-yl)-2-(2-methylpyridin-3-yl)oxazole-4-carboxamide hydrochloride]
- IC50: < 50 nM

Structure (SMILES): Cc1cc(-c2nc(C(=O)Nc3cc4sc(N5CCOCC5)nc4nc3C3CC3)co2)ccn1 [Example 69, N-(5-cyclopropyl-2-morpholinothiazolo[4,5-b]pyridin-6-yl)-2-(2-methylpyridin-4-yl)oxazole-4-carboxamide]
- IC50: < 50 nM

Structure (SMILES): Cc1cc(-c2nc(C(=O)Nc3cc4sc(N5CCOCC5)nc4nc3N3CCCCC3)co2)ccn1 [Example 20, 2-(2-methylpyridin-4-yl)-N-(2-morpholino-5-(piperidin-1-yl)thiazolo[4,5-b]pyridin-6-yl)oxazole-4-carboxamide]
- IC50: < 50 nM

Structure (SMILES): Cc1cc(-c2ccc(C(=O)Nc3cc4sc(N5CCOCC5)nc4nc3N3CCC(O)CC3)o2)ccn1 [Example 101, N-(5-(4-hydroxypiperidin-1-yl)-2-morpholinothiazolo[4,5-b]pyridin-6-yl)-5-(2-methylpyridin-4-yl)furan-2-carboxamide]
- IC50: < 50 nM

Structure (SMILES): Cc1cc(-c2nc(C(=O)Nc3cc4sc(N5CCCCC5)nc4nc3N3CCC3)co2)ccn1 [Example 87, N-(5-(azetidin-1-yl)-2-(piperidin-1-yl)thiazolo[4,5-b]pyridin-6-yl)-2-(2-methylpyridin-4-yl)oxazole-4-carboxamide]
- IC50: < 50 nM

Structure (SMILES): O=C(Nc1cc2oc(N3CCCCC3)nc2nc1N1CCCCC1)c1coc(-c2ccnc(Cl)c2)n1 [Example 10, 2-(2-chloropyridin-4-yl)-N-(2,5-di(piperidin-1-yl)oxazolo[4,5-b]pyridin-6-yl)oxazole-4-carboxamide]
- IC50: < 50 nM

Structure (SMILES): Cc1cc(-c2nc(C(=O)Nc3cc4sc(N5CCOCC5)nc4nc3N3CC[C@H](N)C3)co2)ccn1 [Example 67, (S)—N-(5-(3-aminopyrrolidin-1-yl)-2-morpholinothiazolo[4,5-b]pyridin-6-yl)-2-(2-methylpyridin-4-yl)oxazole-4-carboxamide]
- IC50: < 50 nM

Structure (SMILES): O=C(Nc1cc2sc(N3CCOCC3)nc2nc1N1CCC1)c1cccc(N2CC[C@H](O)C2)n1 [Example 79, (S)—N-(5-(azetidin-1-yl)-2-morpholinothiazolo[4,5-b]pyridin-6-yl)-6-(3-hydroxypyrrolidin-1-yl)picolinamide]
- IC50: 50 to 100 nM

Structure (SMILES): Nc1ccc(-c2cccc(C(=O)Nc3cc4sc(N5CCOCC5)nc4cn3)n2)cn1 [Example 13, 6′-amino-N-(2-morpholinothiazolo[4,5-c]pyridin-6-yl)-[2,3′-bipyridine]-6-carboxamide]
- IC50: < 50 nM

Structure (SMILES): O=C(Nc1cc2sc(N3CCCCC3)nc2nc1N1CCCCC1)c1cccc(N2CC[C@H](O)C2)n1 [Example 65, (S)—N-(2,5-di(piperidin-1-yl)thiazolo[4,5-b]pyridin-6-yl)-6-(3-hydroxypyrrolidin-1-yl)picolinamide]
- IC50: < 50 nM

Structure (SMILES): O=C(Nc1cc2oc(N3CCCCC3)nc2nc1N1CCCCC1)c1coc(-c2cccnc2O)n1 [Example 28, N-(2,5-di(piperidin-1-yl)oxazolo[4,5-b]pyridin-6-yl)-2-(2-hydroxypyridin-3-yl)oxazole-4-carboxamide]
- IC50: > 100 nM

Structure (SMILES): Cc1cc(-c2nc(C(=O)Nc3cc4sc(N5CCOCC5)nc4nc3-c3cnn(C)c3)co2)ccn1 [Example 99, N-(5-(1-methyl-1H-pyrazol-4-yl)-2-morpholinothiazolo[4,5-b]pyridin-6-yl)-2-(2-methylpyridin-4-yl)oxazole-4-carboxamide]
- IC50: < 50 nM

Structure (SMILES): N[C@H]1CCN(c2cccc(C(=O)Nc3cc4sc(N5CCCCC5)nc4nc3N3CCCCC3)n2)C1 [Example 64, (S)-6-(3-aminopyrrolidin-1-yl)-N-(2,5-di(piperidin-1-yl)thiazolo[4,5-b]pyridin-6-yl)picolinamide]
- IC50: < 50 nM

Structure (SMILES): COc1ccc(-c2nc(C(=O)Nc3cc4oc(N5CCOCC5)nc4nc3N3CCC(O)C3)co2)cn1 (stereo not shown) [Example 106, N-(5-(3-hydroxypyrrolidin-1-yl)-2-morpholinooxazolo[4,5-b]pyridin-6-yl)-2-(6-methoxypyridin-3-yl)oxazole-4-carboxamide]
- IC50: > 100 nM
